#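 These data come from cells grown in 96-well plates and exposed to compound for 48 hours at five concentrations. At the GI50, growth is halved.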 Calls of active or inactive are those of the source. No stated cut-off is given here; in the data, active = GI50 up to about 1.1 µM and inactive = higher.
# Experiments:
# Assay in all cases: inhibition of tumour cell growth, NCI panel, 48 h
# BT-549 = system: BT-549
# SN12C = system: SN12C
# HT-29 = system: HT-29
# ACHN = system: ACHN
# CAKI-1 = system: CAKI-1
# SNB-75 = system: SNB-75
# OVCAR-8 = system: OVCAR-8
# MCF7 = system: MCF7
# SF-539 = system: SF-539
# K562 = system: K562
# DU-145 = system: DU-145
# SF-268 = system: SF-268
# MDA-MB-435 = system: MDA-MB-435
# RPMI-8226 = system: RPMI-8226
# Hs-578T = system: Hs-578T
# A549 = system: A549
# UO-31 = system: UO-31
# HCC 2998 = system: HCC 2998
# A498 = system: A498
SMILES,GI50 (BT-549),GI50 (SN12C),GI50 (HT-29),GI50 (ACHN),GI50 (CAKI-1),GI50 (SNB-75),GI50 (OVCAR-8),GI50 (MCF7),GI50 (SF-539),GI50 (K562),GI50 (DU-145),GI50 (SF-268),GI50 (MDA-MB-435),GI50 (RPMI-8226),GI50 (Hs-578T),GI50 (A549),GI50 (UO-31),GI50 (HCC 2998),GI50 (A498)
CC(=O)OCc1ccc2c(c1)C(O)NC(=O)O2 (configuration not stated),> 100 µM (inactive),50.7 µM (inactive),> 100 µM (inactive),> 100 µM (inactive),> 100 µM (inactive),> 100 µM (inactive),> 100 µM (inactive),78.9 µM (inactive),> 100 µM (inactive),31 µM (inactive),> 100 µM (inactive),> 100 µM (inactive),> 100 µM (inactive),19.8 µM (inactive),18.7 µM (inactive),> 100 µM (inactive),> 100 µM (inactive),–,–
[O-][S+](Cc1ccccc1)c1ccccc1Cn1cccc1 (configuration not stated),61.1 µM (inactive),> 100 µM (inactive),> 100 µM (inactive),> 100 µM (inactive),> 100 µM (inactive),74.3 µM (inactive),–,> 100 µM (inactive),> 100 µM (inactive),71.1 µM (inactive),> 100 µM (inactive),> 100 µM (inactive),42.6 µM (inactive),> 100 µM (inactive),> 100 µM (inactive),> 100 µM (inactive),> 100 µM (inactive),> 100 µM (inactive),–
CC(=O)C1=CC=C/C1=N\Nc1ccccc1,11 µM (inactive),5.81 µM (inactive),3.83 µM (inactive),11.2 µM (inactive),3.91 µM (inactive),9.33 µM (inactive),9.73 µM (inactive),1.29 µM (inactive),2.36 µM (inactive),3.94 µM (inactive),14.9 µM (inactive),7.43 µM (inactive),13.1 µM (inactive),1.98 µM (inactive),4.48 µM (inactive),15.1 µM (inactive),13.1 µM (inactive),6.07 µM (inactive),–
COc1cc(C(CN)N(C)C)cc(OC)c1OC (configuration not stated),> 100 µM (inactive),49.2 µM (inactive),> 100 µM (inactive),> 100 µM (inactive),> 100 µM (inactive),–,> 100 µM (inactive),> 100 µM (inactive),> 100 µM (inactive),> 100 µM (inactive),> 100 µM (inactive),> 100 µM (inactive),> 100 µM (inactive),–,> 100 µM (inactive),> 100 µM (inactive),> 100 µM (inactive),> 100 µM (inactive),> 100 µM (inactive)
Clc1cc2nnn(C3CCCO3)c2cc1Cl (configuration not stated),49.7 µM (inactive),> 100 µM (inactive),> 100 µM (inactive),–,> 100 µM (inactive),20 µM (inactive),> 100 µM (inactive),> 100 µM (inactive),> 100 µM (inactive),> 100 µM (inactive),> 100 µM (inactive),> 100 µM (inactive),> 100 µM (inactive),–,62.7 µM (inactive),> 100 µM (inactive),–,> 100 µM (inactive),98.4 µM (inactive)
CC(C)CN(CC#N)CC(C)C,> 100 µM (inactive),> 100 µM (inactive),> 100 µM (inactive),> 100 µM (inactive),> 100 µM (inactive),> 100 µM (inactive),> 100 µM (inactive),> 100 µM (inactive),–,> 100 µM (inactive),> 100 µM (inactive),> 100 µM (inactive),> 100 µM (inactive),48.9 µM (inactive),> 100 µM (inactive),> 100 µM (inactive),> 100 µM (inactive),> 100 µM (inactive),> 100 µM (inactive)
O=c1oc2ccc(Cl)cc2cc1-c1cn2ccccc2n1,34.5 µM (inactive),7.76 µM (inactive),17.7 µM (inactive),2.64 µM (inactive),15.2 µM (inactive),15.3 µM (inactive),9.62 µM (inactive),24.5 µM (inactive),8.09 µM (inactive),> 100 µM (inactive),> 61.9 µM (inactive),> 39.8 µM (inactive),> 100 µM (inactive),80.9 µM (inactive),7.83 µM (inactive),14.7 µM (inactive),4.72 µM (inactive),> 100 µM (inactive),–
CC1C/C(=N\N(C)C)C(C#N)(C#N)C1(C#N)C#N (configuration not stated),4.57 µM (inactive),19 µM (inactive),6.53 µM (inactive),8.43 µM (inactive),1.75 µM (inactive),9.64 µM (inactive),19.2 µM (inactive),16 µM (inactive),18.1 µM (inactive),2.35 µM (inactive),18.2 µM (inactive),15.6 µM (inactive),16.7 µM (inactive),3.92 µM (inactive),35.6 µM (inactive),24.8 µM (inactive),15.6 µM (inactive),17 µM (inactive),–
COC(=O)c1c(O)ccc2c1c1cc3ccccc3c(O)c1n2CCc1ccc(OC)c(OC)c1,16.7 µM (inactive),> 100 µM (inactive),1.79 µM (inactive),83.4 µM (inactive),68.7 µM (inactive),–,63.4 µM (inactive),65.8 µM (inactive),98.9 µM (inactive),87.1 µM (inactive),96.6 µM (inactive),76.4 µM (inactive),53.7 µM (inactive),18.9 µM (inactive),31.4 µM (inactive),43.2 µM (inactive),84.1 µM (inactive),27.4 µM (inactive),> 100 µM (inactive)
Cc1ccc(S(=O)(=O)NC2C(=O)c3ccccc3C(=O)C2n2cnc3ccccc32)cc1 (configuration not stated),28.8 µM (inactive),32.7 µM (inactive),28.1 µM (inactive),24.3 µM (inactive),60 µM (inactive),30.3 µM (inactive),29.4 µM (inactive),31.6 µM (inactive),24.7 µM (inactive),90.6 µM (inactive),57.9 µM (inactive),40 µM (inactive),18.6 µM (inactive),32.5 µM (inactive),51.6 µM (inactive),33.5 µM (inactive),–,0.906 µM (active),–
CC(CC(C#N)(c1ccccc1)c1ccccc1)N1CCCCC1 (configuration not stated),29.5 µM (inactive),26 µM (inactive),18.3 µM (inactive),43.7 µM (inactive),39 µM (inactive),29.7 µM (inactive),42.1 µM (inactive),26.5 µM (inactive),–,19.3 µM (inactive),59.8 µM (inactive),48.9 µM (inactive),19.1 µM (inactive),19.2 µM (inactive),27.3 µM (inactive),44 µM (inactive),26.2 µM (inactive),15.4 µM (inactive),21.6 µM (inactive)
CC(C)(C)OC(=O)c1cnc(Cl)cn1,48.5 µM (inactive),31.8 µM (inactive),46.9 µM (inactive),35.6 µM (inactive),3.56 µM (inactive),> 100 µM (inactive),38.2 µM (inactive),23.5 µM (inactive),> 100 µM (inactive),28.4 µM (inactive),87.5 µM (inactive),55.5 µM (inactive),56.6 µM (inactive),23.7 µM (inactive),35.2 µM (inactive),69.7 µM (inactive),6.19 µM (inactive),–,–
Cc1ccc(NC(=O)c2cc(S(=O)(=O)Nc3n[nH]c(=O)[nH]3)c(SSc3cc(Cl)c(C(=O)Nc4ccc(C)cc4)cc3S(=O)(=O)Nc3n[nH]c(=O)[nH]3)cc2Cl)cc1,> 100 µM (inactive),> 100 µM (inactive),> 100 µM (inactive),> 100 µM (inactive),> 100 µM (inactive),> 100 µM (inactive),> 100 µM (inactive),> 100 µM (inactive),–,> 100 µM (inactive),–,> 100 µM (inactive),> 100 µM (inactive),> 100 µM (inactive),> 100 µM (inactive),> 100 µM (inactive),> 100 µM (inactive),> 100 µM (inactive),> 100 µM (inactive)
CC(O)(Cc1ccccc1C#N)Cc1ccccc1C#N,38.5 µM (inactive),> 100 µM (inactive),> 100 µM (inactive),88.5 µM (inactive),> 100 µM (inactive),37 µM (inactive),54.7 µM (inactive),> 100 µM (inactive),> 100 µM (inactive),50 µM (inactive),> 100 µM (inactive),> 100 µM (inactive),> 100 µM (inactive),–,> 100 µM (inactive),> 100 µM (inactive),–,> 100 µM (inactive),> 100 µM (inactive)
N/N=C(\N)SCCCCCCCCCCS/C(N)=N/N,19.5 µM (inactive),34.9 µM (inactive),14.6 µM (inactive),20.7 µM (inactive),36.1 µM (inactive),–,16.8 µM (inactive),23.6 µM (inactive),29.6 µM (inactive),15.1 µM (inactive),20.9 µM (inactive),30.3 µM (inactive),32.7 µM (inactive),23.3 µM (inactive),30.8 µM (inactive),18 µM (inactive),15.1 µM (inactive),22.4 µM (inactive),15.1 µM (inactive)
CCCC(=O)OC1C(CO)OC(n2cc(F)c(=O)[nH]c2=O)C1F (configuration not stated),11.5 µM (inactive),15.4 µM (inactive),55.2 µM (inactive),44.1 µM (inactive),50.2 µM (inactive),5.86 µM (inactive),72.1 µM (inactive),0.604 µM (active),1.67 µM (inactive),–,17.3 µM (inactive),–,59.4 µM (inactive),1.57 µM (inactive),53.7 µM (inactive),> 100 µM (inactive),> 100 µM (inactive),–,5.68 µM (inactive)

# — ChEMBL document CHEMBL1201862, “PubChem BioAssay data set” (2004)
